Assay results as given in patent US20110263629A1, “AMIDES OF DIAZABICYCLOOCTANES AND USES THEREOF” (Targacept, Inc., priority 2008, published 2011).
Read-outs that look alike come from different tables or passages of the source.

What was measured:
rat α4β2 nAChR subtype = biological target: T1, rat α4β2 nAChR subtype (Rattus norvegicus, UniProt P09483+P12390); assay: Radioligand binding ([3H]nicotine) at rat α4β2 nAChR, rat cortex membranes; details: read-out: Rat α4β2 Ki
T1 construct: Preparation of membranes from rat cortex; from tissue; host or cells: rat cerebral cortex membranes
T1 sequence (P09483 31-630): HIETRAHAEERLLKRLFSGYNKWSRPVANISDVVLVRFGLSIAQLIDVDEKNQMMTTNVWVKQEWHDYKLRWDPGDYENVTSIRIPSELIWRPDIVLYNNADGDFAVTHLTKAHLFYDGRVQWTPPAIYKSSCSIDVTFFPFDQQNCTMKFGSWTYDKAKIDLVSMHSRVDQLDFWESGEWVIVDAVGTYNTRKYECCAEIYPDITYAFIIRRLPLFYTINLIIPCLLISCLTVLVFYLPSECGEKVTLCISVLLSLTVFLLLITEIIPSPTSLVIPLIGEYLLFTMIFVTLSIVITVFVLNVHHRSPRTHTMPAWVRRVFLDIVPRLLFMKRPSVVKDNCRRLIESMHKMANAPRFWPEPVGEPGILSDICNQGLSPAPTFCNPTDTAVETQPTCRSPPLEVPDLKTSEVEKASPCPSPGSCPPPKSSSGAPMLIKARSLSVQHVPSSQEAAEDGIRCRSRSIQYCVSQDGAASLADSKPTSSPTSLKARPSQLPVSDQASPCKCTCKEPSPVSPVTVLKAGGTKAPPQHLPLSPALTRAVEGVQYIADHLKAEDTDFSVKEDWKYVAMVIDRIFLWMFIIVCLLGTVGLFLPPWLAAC
T1 sequence (P12390 25-500): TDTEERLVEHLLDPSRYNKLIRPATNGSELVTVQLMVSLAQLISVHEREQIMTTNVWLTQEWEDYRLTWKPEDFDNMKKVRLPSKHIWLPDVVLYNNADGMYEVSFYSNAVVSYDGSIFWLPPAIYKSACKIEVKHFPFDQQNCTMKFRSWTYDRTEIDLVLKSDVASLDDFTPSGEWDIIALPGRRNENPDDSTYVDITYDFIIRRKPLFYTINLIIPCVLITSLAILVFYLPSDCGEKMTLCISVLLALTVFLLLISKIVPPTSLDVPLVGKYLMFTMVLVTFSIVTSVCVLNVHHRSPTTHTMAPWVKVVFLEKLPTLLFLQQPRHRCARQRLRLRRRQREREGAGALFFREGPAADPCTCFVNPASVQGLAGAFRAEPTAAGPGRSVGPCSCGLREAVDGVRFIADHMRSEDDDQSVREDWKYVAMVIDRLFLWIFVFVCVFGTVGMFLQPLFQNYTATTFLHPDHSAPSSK
Protocol: (§1) Preparation of membranes from rat cortex: Rats (female, Sprague-Dawley), weighing 150-250 g, were maintained on a 12 h light/dark cycle and were allowed free access to water and food supplied by PMI Nutrition International, Inc. Animals were anesthetized with 70% CO2, and then decapitated. Brains were removed and placed on an ice-cold platform. The cerebral cortex was removed and placed in 20 volumes (weight:volume) of ice-cold preparative buffer (137 mM NaCl, 10.7 mM KCl, 5.8 mM KH2PO4, 8 mM Na2HPO4, 20 mM HEPES (free acid), 5 mM iodoacetamide, 1.6 mM EDTA, pH 7.4); PMSF, dissolved in methanol to a final concentration of 100 μM, was added and the suspension was homogenized by Polytron. The homogenate was centrifuged at 18,000×g for 20 min at 4° C. and the resulting pellet was re-suspended in 20 volumes of ice-cold water. After 60 min incubation on ice, a new pellet was collected by centrifugation at 18,000×g for 20 min at 4° C. The final pellet was re-suspended in 10 volumes of buffer and stored at −20° C.
(§2) On the day of the assay, the frozen membranes were thawed and spun at 48,000×g for 20 min. The supernatant was decanted and discarded. The pellet was resuspended in Dulbecco's phosphate buffered saline (PBS, Life Technologies) pH 7.4 and homogenized with the Polytron for 6 seconds. Protein concentrations were determined using a Pierce BCA Protein Assay Kit, with bovine serum albumin as the standard (Pierce Chemical Company, Rockford, Ill.).
(§3) Incubation was terminated by rapid filtration on a multi-manifold tissue harvester (Brandel, Gaithersburg, Md.) using GF/B filters presoaked in 0.33% polyethyleneimine (w/v) to reduce non-specific binding. Tissue was rinsed 3 times in PBS, pH 7.4. Scintillation fluid was added to filters containing the washed tissue and allowed to equilibrate. Filters were then counted to determine radioactivity bound to the membranes by liquid scintillation counting (2200CA Tri-Carb LSC, Packard Instruments, 50% efficiency or Wallac Trilux 1450 MicroBeta, 40% efficiency, Perkin Elmer).
(§4) Data were expressed as disintegrations per minute (DPMs). Within each assay, each point had 2-3 replicates. The replicates for each point were averaged and plotted against the log of the drug concentration. IC50, which is the concentration of the compound that produces 50% inhibition of binding, was determined by least squares non-linear regression. Ki values were calculated using the Cheng-Prussof equation (1973): […]

human α4β2 nAChR subtype = biological target: T2, human α4β2 nAChR subtype (Homo sapiens, UniProt P17787+P43681); assay: Radioligand binding ([3H]nicotine) at human α4β2 nAChR, SH-EP1/human α4β2 clonal cell membranes; details: read-out: Human α4β2 Ki
T2 construct: expressed in transfected cells; host or cells: SH-EP1 clonal cells expressing human α4β2
T2 sequence (P43681 29-627 limits assumed): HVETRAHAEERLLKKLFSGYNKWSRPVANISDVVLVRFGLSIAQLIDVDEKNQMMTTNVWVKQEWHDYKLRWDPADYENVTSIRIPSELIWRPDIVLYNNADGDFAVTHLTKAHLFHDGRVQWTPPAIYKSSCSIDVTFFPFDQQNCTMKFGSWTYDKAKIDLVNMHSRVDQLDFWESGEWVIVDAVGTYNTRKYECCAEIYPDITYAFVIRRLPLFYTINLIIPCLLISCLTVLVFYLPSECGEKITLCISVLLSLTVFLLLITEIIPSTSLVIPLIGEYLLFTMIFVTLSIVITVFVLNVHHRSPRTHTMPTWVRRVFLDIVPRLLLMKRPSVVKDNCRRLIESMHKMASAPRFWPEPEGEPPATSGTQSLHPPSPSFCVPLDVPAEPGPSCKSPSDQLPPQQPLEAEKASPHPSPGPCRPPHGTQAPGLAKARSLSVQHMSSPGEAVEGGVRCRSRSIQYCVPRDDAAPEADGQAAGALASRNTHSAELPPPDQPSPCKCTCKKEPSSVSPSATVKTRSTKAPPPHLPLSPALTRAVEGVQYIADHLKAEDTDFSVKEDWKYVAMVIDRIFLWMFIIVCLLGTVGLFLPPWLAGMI
T2 sequence (P17787 26-502): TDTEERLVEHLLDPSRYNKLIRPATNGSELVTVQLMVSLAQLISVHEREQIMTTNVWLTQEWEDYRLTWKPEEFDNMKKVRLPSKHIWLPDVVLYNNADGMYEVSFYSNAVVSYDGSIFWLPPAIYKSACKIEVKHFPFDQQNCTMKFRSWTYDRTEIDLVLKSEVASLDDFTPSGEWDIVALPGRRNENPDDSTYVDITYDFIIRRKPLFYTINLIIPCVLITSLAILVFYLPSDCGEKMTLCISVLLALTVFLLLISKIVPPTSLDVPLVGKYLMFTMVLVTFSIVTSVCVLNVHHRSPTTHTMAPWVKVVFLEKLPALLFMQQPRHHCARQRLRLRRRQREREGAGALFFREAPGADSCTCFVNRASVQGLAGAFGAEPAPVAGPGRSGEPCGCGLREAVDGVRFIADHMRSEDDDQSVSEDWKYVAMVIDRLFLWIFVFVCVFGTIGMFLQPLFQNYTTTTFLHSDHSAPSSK
Protocol: Preparation of membranes from SH-EP1/human α4β2 clonal cells: Cell pellets from 40 150 mm culture dishes were pooled, and homogenized by Polytron (Kinematica GmbH, Switzerland) in 20 milliliters of ice-cold preparative buffer. The homogenate was centrifuged at 48,000 g for 20 minutes at 4° C. The resulting pellet was re-suspended in 20 mL of ice-cold preparative buffer and stored at −20° C.
as §2, §3, §4

rat α7 nAChR subtype = biological target: T3, rat α7 nAChR subtype (Rattus norvegicus, UniProt Q05941); assay: Radioligand binding ([3H]MLA) at α7 nAChR, rat hippocampus membranes
T3 construct: Preparation of membranes from rat hippocampus; from tissue; host or cells: rat hippocampus membranes
T3 sequence (Q05941 23-502): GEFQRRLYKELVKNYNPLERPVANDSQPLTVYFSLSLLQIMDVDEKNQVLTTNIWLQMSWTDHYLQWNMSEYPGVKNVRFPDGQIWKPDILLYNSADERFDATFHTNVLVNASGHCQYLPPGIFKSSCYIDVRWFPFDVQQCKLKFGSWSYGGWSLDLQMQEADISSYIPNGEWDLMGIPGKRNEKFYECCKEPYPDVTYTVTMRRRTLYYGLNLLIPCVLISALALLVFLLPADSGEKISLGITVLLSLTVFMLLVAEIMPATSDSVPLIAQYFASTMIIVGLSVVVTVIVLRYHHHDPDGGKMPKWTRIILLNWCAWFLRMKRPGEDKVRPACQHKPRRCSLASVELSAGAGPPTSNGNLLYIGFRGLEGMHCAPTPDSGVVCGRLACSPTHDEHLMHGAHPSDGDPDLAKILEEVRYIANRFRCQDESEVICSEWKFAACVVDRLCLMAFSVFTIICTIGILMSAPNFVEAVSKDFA
Protocol: as §1, with “from rat hippocampus: Rats (female,” for “from rat cortex: Rats (female,”, “70% CO2, then decapitated.” for “70% CO2, and then decapitated.”, “platform. The hippocampus was removed” for “platform. The cerebral cortex was removed”, “placed in 10 volumes (weight:volume)” for “placed in 20 volumes (weight:volume)”, “and the tissue suspension was” for “and the suspension was”, “re-suspended in 10 volumes of” for “re-suspended in 20 volumes of”
On the day of the assay, tissue was thawed, centrifuged at 18,000×g for 20 min, and then re-suspended in ice-cold PBS (Dulbecco's Phosphate Buffered Saline, 138 mM NaCl, 2.67 mM KCl, 1.47 mM KH2PO4, 8.1 mM Na2HPO4, 0.9 mM CaCl2, 0.5 mM MgCl2, Invitrogen/Gibco, pH 7.4) to a final concentration of approximately 2 mg protein/mL. Protein was determined by the method of Lowry et al., J. Biol. Chem. 193: 265 (1951), herein incorporated by reference, using bovine serum albumin as the standard.
Assay: The binding of [^3H]MLA was measured using a modification of the methods of Davies et al., Neuropharmacol. 38: 679 (1999), herein incorporated by reference. [^3H]MLA (Specific Activity=25-35 Ci/mmol) was obtained from Tocris. The binding of [^3H]MLA was determined using a 2 h incubation at 21° C. Incubations were conducted in 48-well micro-titre plates and contained about 200 μg of protein per well in a final incubation volume of 300 μL. The incubation buffer was PBS and the final concentration of [^3H]MLA was 5 nM. The binding reaction was terminated by filtration of the protein containing bound ligand onto glass fiber filters (GF/B, Brandel) using a Brandel Tissue Harvester at room temperature. Filters were soaked in de-ionized water containing 0.33% polyethyleneimine to reduce non-specific binding. Each filter was washed with PBS (3×1 mL) at room temperature. Non-specific binding was determined by inclusion of 50 μM non-radioactive MLA in selected wells.
The inhibition of [^3H]MLA binding by test compounds was determined by including seven different concentrations of the test compound in selected wells. Each concentration was replicated in triplicate. IC50 values were estimated as the concentration of compound that inhibited 50 percent of specific [^3H]MLA binding. Inhibition constants (Ki values), reported in nM, were calculated from the IC50 values using the method of Cheng et al., Biochem. Pharmacol. 22: 3099-3108 (1973), herein incorporated by reference.

[1] = SH-EP1/human α4β2 cell membranes, 5 nM [3H]nicotine
[2] = rat cortex membranes, 5 nM [3H]nicotine

Row | Compound | Ki (rat α4β2 nAChR subtype) | Ki (human α4β2 nAChR subtype) | also measured
1 | CCNC(=O)N1C[C@@H]2CN[C@@H](C2)C1 | 0.16 µM | 0.56 µM | –
2 | COC(=O)N1C[C@@H]2CN[C@@H](C2)C1 | 0.1 µM | – | Ki (human α4β2 nAChR subtype; [1]): 0.12 µM
3 | CCCS(=O)(=O)N1C[C@@H]2CN[C@@H](C2)C1 | – | 2.8 µM | –
4 | O=C([C@@H]1C[C@H]1F)N1C[C@H]2CNC[C@@H]1C2 | – | 0.23 µM | –
5 | O=C(C1CCC1)N1C[C@H]2CNC[C@@H]1C2 | – | 0.18 µM | Ki (rat α7 nAChR subtype): 1.5 µM
6 | CC(=O)N1C[C@@H]2CNC[C@H]1C2 | – | 1.3 µM | –
7 | COCCOC(=O)N1C[C@@H]2CN[C@@H](C2)C1 | – | – | Ki (rat α4β2 nAChR subtype; [2]): 1 µM; Ki (human α4β2 nAChR subtype; [1]): 0.58 µM
8 | O=C(C1CCOC1)N1C[C@@H]2CN[C@@H](C2)C1 (stereo partly shown) | – | 0.046 µM | Ki (rat α4β2 nAChR subtype; [2]): 0.14 µM
9 | CC(C)OC(=O)N1C[C@H]2CN[C@H](C2)C1 | 0.024 µM | 0.044 µM | –
10 | CC(C)(C)C(=O)N1C[C@H]2CN[C@H](C2)C1 | 0.068 µM | 0.026 µM | –
11 | O=C(C1CC1)N1CC2CNCC1C2 (stereo not shown) | 0.0056 µM | 0.0034 µM | –
12 | C=CCNC(=O)N1C[C@@H]2CN[C@@H](C2)C1 | 0.13 µM | 0.91 µM | –
13 | CN1C[C@H]2C[C@@H]1CN(C(=O)C1CC1)C2 | 0.019 µM | 0.018 µM | –
14 | CC(=O)N1C[C@@H]2CN[C@@H](C2)C1 | – | – | Ki (rat α4β2 nAChR subtype; [2]): 0.58 µM; Ki (human α4β2 nAChR subtype; [1]): 0.73 µM
15 | CCCOC(=O)N1C[C@@H]2CN[C@@H](C2)C1 | 0.043 µM | 0.094 µM | –
16 | O=C([C@H]1C[C@H]1F)N1C[C@@H]2CNC[C@H]1C2 | 0.0029 µM | 0.0037 µM | –
17 | CC(C)C(=O)N1C[C@H]2CNC[C@@H]1C2 | – | 0.77 µM | Ki (rat α7 nAChR subtype; rat hippocampus membranes, 5 nM [3H]MLA, read-out: Rat α7 Ki): 0.89 µM
18 | CC(=O)N1C[C@H]2CN[C@H](C2)C1 | 0.014 µM | 0.034 µM | –
19 | CC(C)S(=O)(=O)N1C[C@@H]2CN[C@@H](C2)C1 | – | 0.016 µM | Ki (rat α4β2 nAChR subtype; [2]): 0.75 µM
20 | CCS(=O)(=O)N1C[C@@H]2CN[C@@H](C2)C1 | – | 1.2 µM | –
21 | CC(C)CC(=O)N1C[C@@H]2CN[C@@H](C2)C1 | 0.32 µM | 0.35 µM | –
22 | CCOC(=O)N1C[C@@H]2CN[C@@H](C2)C1 | 0.025 µM | 0.049 µM | –
23 | C=CCNC(=S)N1C[C@@H]2CN[C@@H](C2)C1 | 9.9 µM | > 10 µM | –
24 | CCOC(=O)N1C[C@H]2CNC[C@@H]1C2 | – | 1.4 µM | –
25 | C/C=C/CC(=O)N1C[C@@H]2CN[C@@H](C2)C1 | 0.18 µM | 0.22 µM | –
26 | CC(C)OC(=O)N1C[C@@H]2CN[C@@H](C2)C1 | – | – | Ki (rat α4β2 nAChR subtype; [2]): 0.97 µM; Ki (human α4β2 nAChR subtype; [1]): 0.56 µM
27 | O=C(C1CC1)N1C[C@@H]2CNC[C@H]1C2 | 0.007 µM | 0.004 µM | –
